Reference: patent US10723706B2, “Perk inhibitors and uses thereof in treating diseases associated with aggregation-prone proteins” (Ramot at Tel-Aviv University Ltd., priority 2016, dated 2020)
“Also recorded” adds a separate entry of the source.

Assays:
[1] = test system: betaTC-tet pancreatic islet beta-cell line; test: Toxicity in pancreatic beta cells; format: cell-based, mouse
Description: MK-28 toxicity was tested in pancreatic beta cells, the type of cell that is most sensitive when ER stress response pathways are affected. A conditionally transformed mouse pancreatic islet beta-cell line (betaTC-tet), such as described by Efrat [Ann NY Acad Sci 1999, 875:286-293], was used. These cells produce high amounts of insulin, resulting in a high protein load in the ER, making them very sensitive to ER stress and other stimuli, such as cytokine effects. Compromising any of the UPR branches leads to cytotoxicity in these cells. MK-28 was compared to the ER stressor tunicamycin (Tun).

STHdhQ111/111 cells [2] = test: Rescue of cells incubated in DMEM without serum and without Tun, PI cell cycle FACS; format: cell-based, murine; conditions: 48 hours in DMEM without serum and without Tun
Description: (§1) STHdhQ7/7 and STHdhQ111/111 cells were grown as described in Leitman et al. [PLoS One 2014, 9(3):e90803].
(§2) After the indicated treatment times in full medium or in DMEM without serum, cells were incubated with propidium iodide (PI) solution ([…]) and read by flow cytometry as described in Leitman et al. [PLoS One 2014, 9(3):e90803]. Cells in sub-G0/G1 were counted as apoptotic/dead cells.
(§3) The activity of the novel inhibitors, compared to A4, in preventing cytotoxicity induced by pathogenic Htt, was then tested. A stable murine striatal cell line expressing full-length polyQ-expanded Htt, STHdhQ^111/111, was used.

R6/2 transgenic mice [3] = test: Blood glucose levels in R6/2 HD model and WT mice; format: in vivo, mouse
Description: Animals were treated for 4 weeks starting at 4 weeks of age with 1 mg/ml MK-28 or with vehicle (DMSO/PEG400 1:1), delivered using Alzet pumps. […] N=13 TG, 13 TG+MK28, 16 WT, 15 WT+MK28, 15 None.
The HD mouse model used was the R6/2 transgenic mice model B6CBA-R6/2 (CAG 160) Jackson Lab USA. R6/2 mice express only the exon 1 of the human Htt gene, including 150 CAG repeats driven by the human Htt promoter directly influencing the transgene expression levels and thereby the development of HD-like pathology. Out of all the existing mouse models of HD, the R6/2 mouse is one that develops symptoms the most rapidly and has the most widespread occurrence of Htt inclusions in the brain. Furthermore, these lines are the most widely used in therapeutic trials. In these animals, the initial signs of motor symptoms commence around 3 weeks of age. […] While R6/2 mice are initially hyperactive, they gradually reduce their motor activity and become hypoactive around 8 weeks of age. Their motor function and coordination progressively deteriorate, and can be detected as a reduction in the time they can stay on a rotating rod, the so-called Rotarod. […]
Alzet pumps were implanted at 4 weeks of age and MK-28 was administered at 1 mg/kg with continuous dosing for 28 days. […] Vocalization tests were also performed and survival was assessed. […]

cells = test: Intrinsic cytotoxicity on cells; format: cell-based
wild type (WT) mice = test: Toxicity in wild type mice, continuous subcutaneous dosing by Alzet pump; format: in vivo, mouse; conditions: 6 mg/kg for 2 weeks
R6/2 transgenic mice [4] = test: Combined motor phenotype (ledge, clasping, gait, kyphosis) in R6/2 mice; format: in vivo, mouse
Excerpt: Hind-limb clasping behavior was scored on a scale from 0 to 3: 0=normal; 1=clasps hind limbs within 30 seconds of being suspended in the air; 2=clasps hind limbs within 5 seconds but recovers quickly when released after 30 seconds; 3=clasps hind limbs within 5 seconds and has difficulty recovering when released after 30 seconds.
The ledge test is a direct measure of coordination. Mice were lifted from the cage and placed on the cage's ledge. Mice will typically walk along the ledge and attempt to descend back into the cage. Walking along the ledge without losing its balance is assigned a score of 0. If the mouse loses its footing while walking along the ledge, it receives a score of 1. […] If it falls off the ledge, or nearly so, while walking or attempting to lower itself, or shakes and refuses to move at all despite encouragement, it receives a score of 3.
Gait is a measure of coordination and muscle function. […]
In parallel to the Rotarod analysis motor function and disease severity were evaluated using a simple composite phenotype that includes the combined analysis of hind limb clasping, ledge walk, gait and kyphosis [Guyenet et al., J Vis Exp 2010, (39):1787]. This test has the ability to effectively discriminate between affected and non-affected individuals, while also quantifying the temporal progression of neurodegenerative disease phenotypes such as HD.

STHdhQ111/111 cells [5] = test: Rescue from UPR-induced cell death (tunicamycin), PI cell cycle FACS, sub-G0/G1 fraction; format: cell-based
Description: as §1, §2, §3

R6/2 transgenic mice [6] = test: Ultrasonic vocalization of R6/2 mice; format: in vivo, mouse
Description: Mice were treated as described in FIGS. 7 and 8. Transgenic mice receiving (MK-28 TG+) or vehicle (TG) were analyzed for vocalization as number of syllables in 5 minutes intervals. (n=3-4, p=0.059).
Alzet pumps were implanted at 4 weeks of age and MK-28 was administered at 1 mg/kg with continuous dosing for 28 days. This concentration is in a typical clinical dose range. The mice's motor function and coordination were tested by Rotarod, and limb clasping, ledge, gait and kyphosis were also tested. Vocalization tests were also performed and survival was assessed. Tests were performed in two independent blind experiments.
Vocalization was evaluated, as it reflects motor and cognitive abilities.

CN(/N=C\c1ccc(O)c(O)c1)c1nc(-c2ccccc2)cc(-c2ccccc2)n1 [Compound 3, 2-{N-methyl-N′-(3,4-dihydroxybenzylidene)hydrazinyl}-4,6-diphenylpyrimidine]
toxicity in pancreatic beta cells [1]: very low toxicity
protective (rescue) effect without ER stressor (STHdhQ111/111 cells [2]): strong protective effect, in the low micromolar range
protective (rescue) effect without ER stressor (STHdhQ111/111 cells [2]; listed as MK-28): strong rescue effect
blood glucose levels in TG mice (R6/2 transgenic mice [3]; R6/2 TG mice, 4 weeks treatment by Alzet pump from 4 weeks of age): reduced
blood glucose levels in WT mice (R6/2 transgenic mice [3]; WT mice, 4 weeks treatment by Alzet pump, listed as MK-28): no effect; also recorded: did not affect glucose levels
intrinsic cytotoxicity on cells (cells): neither MPGL1 nor MK-28 exhibited intrinsic cytotoxicity
toxic effects in WT mice (wild type (WT) mice): no toxic effects were observed
combined phenotype score of TG mice versus untreated TG (R6/2 transgenic mice [4]; R6/2 TG mice, from week 6 after pump implantation, p<0.05, listed as MK-28): lower scores; also recorded: significant improvement
combined phenotype of WT mice (R6/2 transgenic mice [4]; WT mice, p>0.05): no detrimental effect
rescue from UPR-induced cell death (cytotoxicity) (STHdhQ111/111 cells [5]; Tun for 48 hours): significantly more potent than A4
fold lower IC50 than A4 for inhibition of cytotoxicity (STHdhQ111/111 cells [5]; additional ER stress caused by tunicamycin): > 3 fold
vocalization, number of syllables (R6/2 transgenic mice [6]; R6/2 TG mice treated with MK-28, n=3-4, p=0.059): 13.75 syllables in 5 minutes
vocalization effect versus untreated R6/2 (R6/2 transgenic mice [6]; R6/2 TG mice, listed as MK-28): three fold difference; also recorded: improved
